Measurements: patent publication US10081635B2, “Substituted N-(pyrrolidine-3-yl)-7H-pyrrolo[2,3-D]pyrimidine-4-amine as janus kinase inhibitor” (YANG JI CHEMICAL CO., LTD., priority 2014, dated 2018)

What was measured:
Assay type in all cases: biochemical
Human JAK3 = Human JAK3 (Homo sapiens (Human), UniProt P52333); assay: In vitro kinase inhibition test, JAK3 (33P-ATP filter scintillation); details: compound at 1 uM; read-out: JAK3 kinase-phosphorylation inhibitory level (% inhibition)
Method: (§1) 1. In Vitro Kinase Inhibition Test
(§2) Kinases used were human-derived JAK1, JAK2, JAK3, and TYK2 (Millipore, Germany). Each of these kinases was diluted with a suitable buffer solution as described below, and then mixed with reagents.
(§3) 3-morpholinopropane-1-sulfonic acid (MOPS) and EDTA were dissolved in distilled water at a concentration of 20 mM and 1 mM, respectively, and 100 uL of β-mercaptoethanol, 10 uL of Brij-35™, 5 mL of glycerol, and 100 mg of bovine serum albumin (BSA), each per 100 mL of the solution, were added to the solution, thereby preparing a JAK2, JAK3, and TYK2 dilution buffer solution.
(§4) Each compound was dissolved in a 100% DMSO solution at a 50 uM concentration. This solution was reacted with reagents in wells on a 96-well plate to reach a final concentration of 1 uM. Detailed experimental methods for each kinase are described below.
(§5) After reaction for about 40 minutes at room temperature, the reaction was stopped by adding 5 uL of a 3% (v/v) phosphoric acid solution.
(§6) In Tables 5 and 6, the numbers in the “Example” column, which are identification numbers of the examples, indicate the compounds synthesized in the corresponding examples, the values in the “JAK1”, “JAK2”, “JAK3”, and “TYK2” columns represent kinase-phosphorylation inhibitory levels as a percentage (%) of the compounds synthesized in the corresponding examples at a 1 uM concentration. In Tables 5 and 6, negative values substantially indicate no inhibitory effect.
(§7) The inhibitory levels (% inhibition) represent a percentage of reduction in phosphorylation activity in each test group with respect to the phosphorylation activity of a corresponding kinase in a negative control group lacking any of the compounds synthesized in the examples. % inhibition=[(Scintillation value of Test compound non-treatment group−Scintillation value of Test compound treatment group)/(Scintillation value of Test compound non-treatment group)]×100

Human JAK2 = Human JAK2 (Homo sapiens (Human), UniProt O60674); assay: In vitro kinase inhibition test, JAK2 (33P-ATP filter scintillation); details: compound at 1 uM; read-out: JAK2 kinase-phosphorylation inhibitory level (% inhibition)
Sequence of Human JAK2 (O60674 whole entry): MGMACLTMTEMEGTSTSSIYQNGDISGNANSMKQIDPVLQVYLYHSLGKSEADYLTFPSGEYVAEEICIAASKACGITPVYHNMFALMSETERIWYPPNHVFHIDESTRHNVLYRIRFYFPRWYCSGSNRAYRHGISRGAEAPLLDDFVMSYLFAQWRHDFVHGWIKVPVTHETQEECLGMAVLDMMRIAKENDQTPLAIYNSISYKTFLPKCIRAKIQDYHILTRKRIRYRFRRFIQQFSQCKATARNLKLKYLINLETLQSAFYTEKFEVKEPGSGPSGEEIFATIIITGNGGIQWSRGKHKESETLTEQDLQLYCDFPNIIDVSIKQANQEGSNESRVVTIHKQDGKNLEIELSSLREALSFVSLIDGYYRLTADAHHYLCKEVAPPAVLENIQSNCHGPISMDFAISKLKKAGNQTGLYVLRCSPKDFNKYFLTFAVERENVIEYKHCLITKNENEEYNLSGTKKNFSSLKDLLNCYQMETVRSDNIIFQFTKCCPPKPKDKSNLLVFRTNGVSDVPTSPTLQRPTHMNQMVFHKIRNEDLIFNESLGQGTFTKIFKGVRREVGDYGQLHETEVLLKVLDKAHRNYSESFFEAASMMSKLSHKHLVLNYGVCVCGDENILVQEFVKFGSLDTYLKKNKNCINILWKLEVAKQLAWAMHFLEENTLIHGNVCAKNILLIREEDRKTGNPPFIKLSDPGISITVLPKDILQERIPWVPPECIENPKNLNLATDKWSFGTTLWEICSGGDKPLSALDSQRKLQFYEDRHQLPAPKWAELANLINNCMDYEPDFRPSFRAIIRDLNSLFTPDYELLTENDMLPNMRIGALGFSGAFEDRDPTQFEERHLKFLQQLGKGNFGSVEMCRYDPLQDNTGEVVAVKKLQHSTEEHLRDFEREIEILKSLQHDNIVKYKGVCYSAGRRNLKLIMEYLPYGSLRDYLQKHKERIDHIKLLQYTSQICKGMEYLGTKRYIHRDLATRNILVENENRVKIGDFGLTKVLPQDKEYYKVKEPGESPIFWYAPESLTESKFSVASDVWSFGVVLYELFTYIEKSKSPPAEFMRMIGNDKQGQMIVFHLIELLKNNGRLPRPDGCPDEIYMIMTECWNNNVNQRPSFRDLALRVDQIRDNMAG
Method: as §1, §2, §3, §4, §5, §6, §7

Human TYK2 = Human TYK2 (Homo sapiens (Human), UniProt P29597); assay: In vitro kinase inhibition test, TYK2 (33P-ATP filter scintillation); details: compound at 1 uM; read-out: TYK2 kinase-phosphorylation inhibitory level (% inhibition)
Sequence of Human TYK2 (P29597 whole entry): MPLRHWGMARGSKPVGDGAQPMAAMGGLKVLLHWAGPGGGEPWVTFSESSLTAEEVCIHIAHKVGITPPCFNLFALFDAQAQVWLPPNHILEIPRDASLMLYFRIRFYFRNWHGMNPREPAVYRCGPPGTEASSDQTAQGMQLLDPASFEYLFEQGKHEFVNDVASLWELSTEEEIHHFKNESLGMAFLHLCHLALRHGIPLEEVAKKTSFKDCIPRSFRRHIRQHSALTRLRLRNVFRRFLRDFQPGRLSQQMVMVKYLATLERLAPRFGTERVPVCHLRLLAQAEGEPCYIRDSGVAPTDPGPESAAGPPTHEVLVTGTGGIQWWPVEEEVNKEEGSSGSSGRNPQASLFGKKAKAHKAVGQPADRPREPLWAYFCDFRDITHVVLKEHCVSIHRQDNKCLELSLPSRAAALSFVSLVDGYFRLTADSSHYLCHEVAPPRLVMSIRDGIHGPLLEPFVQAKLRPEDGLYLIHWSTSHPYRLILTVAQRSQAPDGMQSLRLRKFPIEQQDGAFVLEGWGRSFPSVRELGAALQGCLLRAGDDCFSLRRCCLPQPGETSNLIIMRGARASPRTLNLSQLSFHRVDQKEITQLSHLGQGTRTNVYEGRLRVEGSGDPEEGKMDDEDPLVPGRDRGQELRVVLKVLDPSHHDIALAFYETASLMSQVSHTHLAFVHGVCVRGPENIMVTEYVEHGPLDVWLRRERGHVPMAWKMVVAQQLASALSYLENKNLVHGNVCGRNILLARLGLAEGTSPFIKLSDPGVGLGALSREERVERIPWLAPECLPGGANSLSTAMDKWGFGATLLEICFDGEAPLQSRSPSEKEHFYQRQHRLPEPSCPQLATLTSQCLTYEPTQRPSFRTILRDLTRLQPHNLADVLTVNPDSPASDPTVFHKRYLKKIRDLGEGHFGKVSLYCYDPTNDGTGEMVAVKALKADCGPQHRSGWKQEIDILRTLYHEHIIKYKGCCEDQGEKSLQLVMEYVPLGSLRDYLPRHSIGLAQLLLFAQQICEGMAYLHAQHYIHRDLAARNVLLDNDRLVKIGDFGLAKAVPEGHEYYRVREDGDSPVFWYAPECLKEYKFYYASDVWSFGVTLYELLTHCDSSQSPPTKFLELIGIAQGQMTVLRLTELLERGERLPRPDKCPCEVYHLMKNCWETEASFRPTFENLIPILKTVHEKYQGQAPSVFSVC
Method: as §1, §2, §3, §4, §5, §6, §7

Human JAK1 = Human JAK1 (Homo sapiens (Human), UniProt P23458); assay: In vitro kinase inhibition test, JAK1 (33P-ATP filter scintillation); details: compound at 1 uM; read-out: JAK1 kinase-phosphorylation inhibitory level (% inhibition)
Sequence of Human JAK1 (P23458 whole entry): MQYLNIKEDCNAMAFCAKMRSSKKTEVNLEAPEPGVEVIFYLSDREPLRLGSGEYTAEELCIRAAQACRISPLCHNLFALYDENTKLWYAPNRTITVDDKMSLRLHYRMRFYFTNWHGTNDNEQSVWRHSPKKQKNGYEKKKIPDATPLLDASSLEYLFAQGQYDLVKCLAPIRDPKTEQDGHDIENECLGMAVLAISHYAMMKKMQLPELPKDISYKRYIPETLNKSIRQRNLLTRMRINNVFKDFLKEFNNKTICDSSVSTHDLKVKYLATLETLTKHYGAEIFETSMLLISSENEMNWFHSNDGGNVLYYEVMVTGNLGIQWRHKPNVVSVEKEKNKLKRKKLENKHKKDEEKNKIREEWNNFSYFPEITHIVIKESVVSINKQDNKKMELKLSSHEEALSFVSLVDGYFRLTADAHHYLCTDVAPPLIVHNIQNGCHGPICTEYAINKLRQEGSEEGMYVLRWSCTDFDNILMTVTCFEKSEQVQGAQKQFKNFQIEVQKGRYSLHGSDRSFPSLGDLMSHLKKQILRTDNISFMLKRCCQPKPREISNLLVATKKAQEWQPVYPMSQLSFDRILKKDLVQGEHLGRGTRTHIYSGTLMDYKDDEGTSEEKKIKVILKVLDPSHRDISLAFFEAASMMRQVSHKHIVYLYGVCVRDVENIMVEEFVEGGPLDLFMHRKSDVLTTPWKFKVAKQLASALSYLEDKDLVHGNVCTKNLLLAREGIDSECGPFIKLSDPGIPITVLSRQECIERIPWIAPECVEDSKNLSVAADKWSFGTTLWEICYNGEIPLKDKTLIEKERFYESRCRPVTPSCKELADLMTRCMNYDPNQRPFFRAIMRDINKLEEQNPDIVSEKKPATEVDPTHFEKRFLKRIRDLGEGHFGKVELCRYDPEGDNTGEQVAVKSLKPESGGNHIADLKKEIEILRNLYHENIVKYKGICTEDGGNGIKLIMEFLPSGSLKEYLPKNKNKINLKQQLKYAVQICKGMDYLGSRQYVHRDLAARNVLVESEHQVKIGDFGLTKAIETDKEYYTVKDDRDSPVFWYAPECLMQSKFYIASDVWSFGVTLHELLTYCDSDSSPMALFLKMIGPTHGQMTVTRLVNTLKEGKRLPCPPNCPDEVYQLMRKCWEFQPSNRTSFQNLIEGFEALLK
Method: as §1, §2
Tris(hydroxymethyl)aminomethane (TRIS) and ethylenediaminetetraacetic acid (EDTA) were dissolved in distilled water at a concentration of 20 mM and 0.2 mM, respectively, and 100 uL of β-mercaptoethanol, 10 uL of Brij-35™, and 5 mL of glycerol, each per 100 mL of the solution, were added to the solution, thereby preparing a JAK1 dilution buffer solution.
as §4
After reaction for about 40 minutes at room temperature, the reaction was stopped by adding 5 uL of a 3% (v/v) phosphoric acid solution. […] The methanol drying is a drying process using an azeotropic effect, wherein methanol is added into an aqueous solution for drying.
as §6, §7

Sequence of Human JAK3 (P52333 whole entry): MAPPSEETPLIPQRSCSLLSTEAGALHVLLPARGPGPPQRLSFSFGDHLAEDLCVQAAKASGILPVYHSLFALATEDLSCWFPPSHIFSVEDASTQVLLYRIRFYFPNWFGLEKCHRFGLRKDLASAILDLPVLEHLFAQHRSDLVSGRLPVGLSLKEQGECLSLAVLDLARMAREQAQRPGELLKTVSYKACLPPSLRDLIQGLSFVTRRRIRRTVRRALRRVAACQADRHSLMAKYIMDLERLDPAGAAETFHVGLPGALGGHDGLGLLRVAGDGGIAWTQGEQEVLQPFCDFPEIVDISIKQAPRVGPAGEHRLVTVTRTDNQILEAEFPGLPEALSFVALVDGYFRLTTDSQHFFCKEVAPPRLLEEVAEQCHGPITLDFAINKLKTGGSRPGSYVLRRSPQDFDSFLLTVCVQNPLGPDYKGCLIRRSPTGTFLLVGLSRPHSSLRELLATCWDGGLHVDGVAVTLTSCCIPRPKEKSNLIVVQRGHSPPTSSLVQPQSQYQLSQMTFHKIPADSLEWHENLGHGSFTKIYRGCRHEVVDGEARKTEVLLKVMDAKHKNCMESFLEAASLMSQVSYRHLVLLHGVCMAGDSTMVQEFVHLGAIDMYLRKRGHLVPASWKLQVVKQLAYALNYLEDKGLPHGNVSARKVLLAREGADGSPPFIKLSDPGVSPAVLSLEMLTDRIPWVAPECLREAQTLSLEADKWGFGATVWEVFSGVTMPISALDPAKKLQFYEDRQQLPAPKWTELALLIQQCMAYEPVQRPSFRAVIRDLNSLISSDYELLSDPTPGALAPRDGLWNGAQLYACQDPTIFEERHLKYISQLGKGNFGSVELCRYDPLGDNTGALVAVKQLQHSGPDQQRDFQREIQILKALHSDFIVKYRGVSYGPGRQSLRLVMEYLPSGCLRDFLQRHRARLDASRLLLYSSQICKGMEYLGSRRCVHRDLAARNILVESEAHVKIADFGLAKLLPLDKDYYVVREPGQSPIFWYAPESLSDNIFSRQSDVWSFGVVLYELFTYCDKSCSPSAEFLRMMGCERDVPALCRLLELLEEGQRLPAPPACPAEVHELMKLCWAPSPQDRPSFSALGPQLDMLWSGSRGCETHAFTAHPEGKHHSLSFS

Row | inhibition at 1 µM (Human JAK3) | inhibition at 1 µM (Human JAK2) | inhibition at 1 µM (Human TYK2) | inhibition at 1 µM (Human JAK1) | SMILES
1 | 50% | 52% | 78% | 98% | CN(c1ncnc2[nH]ccc12)[C@H]1CN(C(=O)Nc2ccccc2)CC12CC2 [Example 23, (R)-7-(methyl(7H-pyrrolo[2,3-d]pyrimidin-4-yl)amino)-N-phenyl-5-azaspiro[2.4]heptane-5-carboxamide]
2 | 48% | 6% | 47% | 94% | CN(c1ncnc2[nH]ccc12)[C@H]1CN(C(=O)Nc2ccc(F)cc2)CC12CC2 [Example 24, (R)-N-(4-fluorophenyl)-7-(methyl(7H-pyrrolo[2,3-d]pyrimidin-4-yl)amino)-5-azaspiro[2.4]heptane-5-carboxamide]
3 | 25% | 5% | 48% | 88% | CN(c1ncnc2[nH]ccc12)[C@H]1CN(C(=O)Nc2ccc(Cl)cc2Cl)CC12CC2 [Example 25, (R)-N-(2,4-dichlorophenyl)-7-(methyl(7H-pyrrolo[2,3-d]pyrimidin-4-yl)amino)-5-azaspiro[2.4]heptane-5-carboxamide]
4 | 51% | 13% | 42% | 94% | CN(c1ncnc2[nH]ccc12)[C@H]1CN(C(=O)Nc2ccc(Cl)c(Cl)c2)CC12CC2 [Example 26, (R)-N-(3,4-dichlorophenyl)-7-(methyl(7H-pyrrolo[2,3-d]pyrimidin-4-yl)amino)-5-azaspiro[2.4]heptane-5-carboxamide]
5 | 17% | -1% | 27% | 91% | CN(c1ncnc2[nH]ccc12)[C@H]1CN(C(=O)Nc2cc(Cl)ccc2Cl)CC12CC2 [Example 27, (R)-N-(2,5-dichlorophenyl)-7-(methyl(7H-pyrrolo[2,3-d]pyrimidin-4-yl)amino)-5-azaspiro[2.4]heptane-5-carboxamide]
6 | 40% | 23% | 39% | 91% | CN(c1ncnc2[nH]ccc12)[C@H]1CN(C(=O)Nc2cccc(Cl)c2Cl)CC12CC2 [Example 28, (R)-N-(2,3-dichlorophenyl)-7-(methyl(7H-pyrrolo[2,3-d]pyrimidin-4-yl)amino)-5-azaspiro[2.4]heptane-5-carboxamide]
7 | 39% | 19% | 43% | 92% | Cc1ccc(NC(=O)N2C[C@H](N(C)c3ncnc4[nH]ccc34)C3(CC3)C2)cc1Cl [Example 29, (R)-N-(3-chloro-4-methylphenyl)-7-(methyl(7H-pyrrolo[2,3-d]pyrimidin-4-yl)amino)-5-azaspiro[2.4]heptane-5-carboxamide]
8 | 14% | -11% | 27% | 80% | CN(c1ncnc2[nH]ccc12)[C@H]1CN(C(=O)Nc2ccccc2-c2ccccc2)CC12CC2 [Example 30, (R)-N-([1,1′-biphenyl]-2-yl)-7-(methyl(7H-pyrrolo[2,3-d]pyrimidin-4-yl)amino)-5-azaspiro[2.4]heptane-5-carboxamide]
9 | 13% | -26% | 1% | 62% | CN(c1ncnc2[nH]ccc12)[C@H]1CN(C(=S)Nc2cc(C(F)(F)F)cc(C(F)(F)F)c2)CC12CC2 [Example 31, (R)-N-(3,5-bis(trifluoromethyl)phenyl)-7-(methyl(7H-pyrrolo[2,3-d]pyrimidin-4-yl)amino)-5-azaspiro[2.4]heptane-5-carbothioamide]
10 | 59% | 68% | 86% | 97% | CN(c1ncnc2[nH]ccc12)[C@H]1CN(S(=O)(=O)C(F)(F)F)CC12CC2 [Example 32, (R)-N-methyl-N-(5-((trifluoromethyl)sulfonyl)-5-azaspiro[2.4]heptan-7-yl)-7H-pyrrolo[2,3-d]pyrimidin-4-amine]
11 | 70% | 84% | 88% | 98% | CCS(=O)(=O)N1C[C@H](N(C)c2ncnc3[nH]ccc23)C2(CC2)C1 [Example 33, (R)-N-(5-(ethylsulfonyl)-5-azaspiro[2.4]heptan-7-yl)-N-methyl-7H-pyrrolo[2,3-d]pyrimidin-4-amine]
12 | 56% | 76% | 72% | 97% | CC(C)S(=O)(=O)N1C[C@H](N(C)c2ncnc3[nH]ccc23)C2(CC2)C1 [Example 34, (R)-N-(5-(isopropylsulfonyl)-5-azaspiro[2.4]heptan-7-yl)-N-methyl-7H-pyrrolo[2,3-d]pyrimidin-4-amine]
13 | 77% | 78% | 89% | 99% | CCCS(=O)(=O)N1C[C@H](N(C)c2ncnc3[nH]ccc23)C2(CC2)C1 [Example 35, (R)-N-methyl-N-(5-(propylsulfonyl)-5-azaspiro[2.4]heptan-7-yl)-7H-pyrrolo[2,3-d]pyrimidin-4-amine]
14 | 52% | 90% | 91% | 97% | CN(c1ncnc2[nH]ccc12)[C@H]1CN(S(=O)(=O)c2ccccc2)CC12CC2 [Example 36, (R)-N-methyl-N-(5-(phenylsulfonyl)-5-azaspiro[2.4]heptan-7-yl)-7H-pyrrolo[2,3-d]pyrimidin-4-amine]
15 | 61% | 84% | 90% | 98% | CN(c1ncnc2[nH]ccc12)[C@H]1CN(S(=O)(=O)c2ccccc2F)CC12CC2 [Example 37, (R)-N-(5-((2-fluorophenyl)sulfonyl)-5-azaspiro[2.4]heptan-7-yl)-N-methyl-7H-pyrrolo[2,3-d]pyrimidin-4-amine]
16 | 84% | 97% | 97% | 100% | CN(c1ncnc2[nH]ccc12)[C@H]1CN(S(=O)(=O)c2cccc(F)c2)CC12CC2 [Example 38, (R)-N-(5-((3-fluorophenyl)sulfonyl)-5-azaspiro[2.4]heptan-7-yl)-N-methyl-7H-pyrrolo[2,3-d]pyrimidin-4-amine]
17 | 65% | 95% | 93% | 99% | CN(c1ncnc2[nH]ccc12)[C@H]1CN(S(=O)(=O)c2ccc(F)cc2)CC12CC2 [Example 39, (R)-N-(5-((4-fluorophenyl)sulfonyl)-5-azaspiro[2.4]heptan-7-yl)-N-methyl-7H-pyrrolo[2,3-d]pyrimidin-4-amine]
18 | 47% | 64% | 72% | 94% | CN(c1ncnc2[nH]ccc12)[C@H]1CN(S(=O)(=O)c2ccccc2C#N)CC12CC2 [Example 40, (R)-2-((7-(methyl(7H-pyrrolo[2,3-d]pyrimidin-4-yl)amino)-5-azaspiro[2.4]heptan-5-yl)sulfonyl)benzonitrile]
19 | 33% | 49% | 68% | 97% | CN(c1ncnc2[nH]ccc12)[C@H]1CN(S(=O)(=O)c2ccc(C#N)cc2)CC12CC2 [Example 42, (R)-4-((7-(methyl(7H-pyrrolo[2,3-d]pyrimidin-4-yl)amino)-5-azaspiro[2.4]heptan-5-yl)sulfonyl)benzonitrile]
20 | 75% | 70% | 78% | 97% | CN(c1ncnc2[nH]ccc12)[C@H]1CN(S(=O)(=O)c2ccccc2[N+](=O)[O-])CC12CC2 [Example 43, (R)-N-methyl-N-(5-((2-nitrophenyl)sulfonyl)-5-azaspiro[2.4]heptan-7-yl)-7H-pyrrolo[2,3-d]pyrimidin-4-amine]
